Drawing on PubChem BioAssay (NCI), this text covers GI50 and TGI for 11 compounds.

Among the test systems are MDA-MB-231 breast; BT-549 breast; M14 melanoma; HL-60(TB) leukemia; SNB-19 CNS; SK-MEL-5 melanoma; CCRF-CEM leukemia; MOLT-4 leukemia; KM12 colon; ACHN renal.
Test in all cases: inhibition of tumour cell growth, NCI panel, 48 h

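These data come from cells grown in 96-well plates and exposed to compound for 48 hours at five concentrations. At the GI50, growth is halved. TGI: total growth inhibition.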

With `COc1ccc2nc3cc([N+](=O)[O-])ccc3c(NCCCCCN(C)C)c2c1`, the GI50 was 0.249 µM in the test with MDA-MB-231 breast; 1.77 µM with BT-549 breast; 0.216 µM in the test on M14 melanoma; 0.14 µM with HL-60(TB) leukemia; 0.301 µM with SNB-19 CNS; 0.159 µM with SK-MEL-5 melanoma. Further, the GI50 is 0.295 µM in the test with CCRF-CEM leukemia, 0.105 µM in the test on MOLT-4 leukemia, 0.207 µM in the test with KM12 colon and 0.592 µM in the test with ACHN renal. The TGI with MDA-MB-231 breast came out at 1.93 µM; in the test with BT-549 breast, 3.55 µM; in the test on M14 melanoma, 0.522 µM; with HL-60(TB) leukemia, 2.52 µM; with SNB-19 CNS it was 1.23 µM; in the test on SK-MEL-5 melanoma, 0.39 µM. Besides, the TGI is 3.09 µM in the test on CCRF-CEM leukemia, 1.04 µM in the test on MOLT-4 leukemia, 0.618 µM in the test with KM12 colon and 7.49 µM in the test on ACHN renal.
For the compound `COc1c(CCC[P+](c2ccccc2)(c2ccccc2)c2ccccc2)cc2c(c1OC)OCO2`, the GI50 with MDA-MB-231 breast is 2.14 µM; in the test with BT-549 breast, 1.24 µM; in the test with M14 melanoma, 2.22 µM; in the test on HL-60(TB) leukemia, 0.339 µM; in the test on SNB-19 CNS it was 1.44 µM; with SK-MEL-5 melanoma, 1.33 µM. The GI50 with CCRF-CEM leukemia is 1.7 µM; in the test on MOLT-4 leukemia it was 3.12 µM; with KM12 colon, 0.643 µM; in the test with ACHN renal it was 5.34 µM. Besides, the TGI was found to be 10.9 µM with MDA-MB-231 breast; 15 µM in the test with BT-549 breast; 19.2 µM in the test with M14 melanoma; 1.48 µM in the test on HL-60(TB) leukemia; 12.9 µM in the test with SNB-19 CNS; 2.81 µM in the test with SK-MEL-5 melanoma. The TGI in the test with CCRF-CEM leukemia was above 100 µM; in the test with MOLT-4 leukemia, 16.3 µM; with KM12 colon it was 7.48 µM; in the test with ACHN renal it was 29.5 µM.
As for `O=C(c1ccc(F)cc1)c1cccc(C(=O)c2ccc(F)cc2)n1`, the TGI is above 100 µM with MDA-MB-231 breast; 18.5 µM in the test with BT-549 breast; above 100 µM in the test with M14 melanoma; above 100 µM with HL-60(TB) leukemia; 54 µM in the test on SNB-19 CNS; above 79.2 µM with SK-MEL-5 melanoma. Also, the TGI with CCRF-CEM leukemia, with MOLT-4 leukemia, in the test with KM12 colon and with ACHN renal was above 100 µM throughout.
With `Cc1ccc(S(=O)(=O)N2CCSCCSCCSCCSCC2)cc1`, the TGI with MDA-MB-231 breast is 56.6 µM; with BT-549 breast, 44 µM; in the test on M14 melanoma it was above 100 µM; in the test on HL-60(TB) leukemia, above 100 µM; in the test on SNB-19 CNS it was 47.3 µM; with SK-MEL-5 melanoma, above 86.9 µM. Further, the TGI in the test with CCRF-CEM leukemia, in the test with MOLT-4 leukemia, in the test on KM12 colon and in the test with ACHN renal was above 100 µM each time.
As for `COC(=O)[C@]12CC[C@@H](C)[C@H](C)[C@@H]1C1=CC[C@@H]3[C@@]4(C)C[C@@H](OC(C)=O)[C@H](O)[C@@](C)(COC(C)=O)[C@@H]4[C@H](O)C[C@@]3(C)[C@]1(C)CC2`, the GI50 with MDA-MB-231 breast is 1.87 µM; in the test on BT-549 breast, 2.18 µM; in the test on M14 melanoma it was 1.96 µM; with HL-60(TB) leukemia it was 2.11 µM; in the test on SNB-19 CNS, 2.78 µM; with SK-MEL-5 melanoma, 1.78 µM. For the same compound, the GI50 with CCRF-CEM leukemia was 2.54 µM; in the test with MOLT-4 leukemia, 1.66 µM; with KM12 colon, 2.65 µM; in the test on ACHN renal it was 2.83 µM. For the same compound, the TGI worked out at 4.81 µM in the test on MDA-MB-231 breast; 5.71 µM in the test on BT-549 breast; 5.09 µM in the test with M14 melanoma; 5.42 µM in the test with HL-60(TB) leukemia; 3.66 µM with SK-MEL-5 melanoma; 6.34 µM with CCRF-CEM leukemia. Further, the TGI with MOLT-4 leukemia stood at 4.24 µM; with KM12 colon it was 7.9 µM; with ACHN renal, 9.17 µM.
With `CC/C=C\C=C/C(=O)N/C=C/CC1Cc2cccc(O)c2C(=O)O1` (centres undefined), the GI50 in the test with MDA-MB-231 breast was 17 µM; in the test on BT-549 breast, 25.8 µM; in the test on M14 melanoma it was 22.7 µM; with HL-60(TB) leukemia, 23.8 µM; with SNB-19 CNS, 32.9 µM; in the test on SK-MEL-5 melanoma, 5.63 µM. In addition, the GI50 in the test on CCRF-CEM leukemia was 15 µM; with MOLT-4 leukemia it was 13.4 µM; with KM12 colon, 19.2 µM; in the test with ACHN renal, 22.3 µM. Also, the TGI in the test with MDA-MB-231 breast is 39 µM; with BT-549 breast, 87.3 µM; in the test on M14 melanoma, 64.2 µM; in the test on HL-60(TB) leukemia, above 100 µM; with SNB-19 CNS, above 100 µM; in the test with SK-MEL-5 melanoma it was 27.3 µM. Also, the TGI with CCRF-CEM leukemia was 39.9 µM; in the test on MOLT-4 leukemia, 42.2 µM; in the test on KM12 colon, 72.1 µM; with ACHN renal, 52.1 µM.
On to `CCN(CC)S(=O)(=O)c1ccc(OC)c(Nc2ncc(-c3ccccc3)o2)c1`, for which the GI50 was above 13.9 µM with MDA-MB-231 breast; above 18.4 µM in the test on BT-549 breast; above 25 µM in the test with M14 melanoma; above 15 µM with HL-60(TB) leukemia; above 19.2 µM with SNB-19 CNS; above 12.2 µM in the test on SK-MEL-5 melanoma. Moreover, the GI50 in the test with CCRF-CEM leukemia is above 19.3 µM; with MOLT-4 leukemia it was above 18.3 µM; with KM12 colon, 0.845 µM; with ACHN renal it was above 22.7 µM. For the same compound, the TGI in the test with MDA-MB-231 breast, in the test on BT-549 breast, in the test on M14 melanoma, with HL-60(TB) leukemia, with SNB-19 CNS and in the test with SK-MEL-5 melanoma was above 25 µM throughout. For the same compound, the TGI in the test on CCRF-CEM leukemia, in the test on MOLT-4 leukemia, with KM12 colon and in the test on ACHN renal was above 25 µM throughout.
Take `CC(C)(C)C[C@H]1NC(C(=O)NCC[C@H](O)CO)[C@H](c2cccc(Cl)c2)[C@@]12C(=O)Nc1cc(Cl)c(F)cc12` (some centres undefined): the GI50 in the test with MDA-MB-231 breast was 14.9 µM; with BT-549 breast, 16.3 µM; with M14 melanoma, 16.6 µM; with HL-60(TB) leukemia it was 14.7 µM; in the test with SNB-19 CNS it was 21.1 µM; in the test on SK-MEL-5 melanoma, 6.73 µM. In addition, the GI50 in the test on CCRF-CEM leukemia is 17.7 µM; in the test with MOLT-4 leukemia it was 2.19 µM; with KM12 colon, 14.7 µM; in the test on ACHN renal, 3.28 µM. Further, the TGI in the test with MDA-MB-231 breast is 32.4 µM; in the test on BT-549 breast, 34.2 µM; in the test on M14 melanoma, 33.7 µM; with HL-60(TB) leukemia it was 40.1 µM; with SNB-19 CNS, 59.8 µM; in the test with SK-MEL-5 melanoma, 20 µM. The TGI in the test on CCRF-CEM leukemia came out at 45.9 µM; in the test with MOLT-4 leukemia, 8.22 µM; in the test on KM12 colon, 28.8 µM; in the test with ACHN renal, 16.3 µM.
On to `O=C1OC(=O)C(c2c[nH]c3ccccc23)=C1c1c[nH]c2ccccc12`, for which the GI50 in the test on MDA-MB-231 breast is 14.5 µM; in the test on BT-549 breast, above 25 µM; in the test on M14 melanoma it was above 25 µM; with HL-60(TB) leukemia it was above 25 µM; in the test on SNB-19 CNS, above 25 µM; in the test on SK-MEL-5 melanoma, above 25 µM. Also, the GI50 with CCRF-CEM leukemia, with MOLT-4 leukemia, in the test with KM12 colon and with ACHN renal was above 25 µM each time. For the same compound, the TGI with MDA-MB-231 breast, with BT-549 breast, in the test with M14 melanoma, in the test with HL-60(TB) leukemia, with SNB-19 CNS and in the test on SK-MEL-5 melanoma was above 25 µM in each case. Further, the TGI in the test on CCRF-CEM leukemia, with MOLT-4 leukemia, with KM12 colon and in the test on ACHN renal was above 25 µM in each case.
As to `Cc1ccc2c(ccc3c[n+]4c5ccccc5ccc4n32)c1`, the GI50 in the test on MDA-MB-231 breast was 2.7 µM; with BT-549 breast, 0.434 µM; in the test on M14 melanoma, 1.35 µM; with HL-60(TB) leukemia, 2.5 µM; in the test with SNB-19 CNS, 0.494 µM; in the test on SK-MEL-5 melanoma, 1.01 µM. Moreover, the GI50 is 2.46 µM in the test on CCRF-CEM leukemia, 1.65 µM in the test with MOLT-4 leukemia, 0.34 µM in the test on KM12 colon and 4.12 µM in the test with ACHN renal. Further, the TGI came out at 11.6 µM with MDA-MB-231 breast; 2.41 µM with BT-549 breast; 4.68 µM in the test with M14 melanoma; 10.2 µM in the test on HL-60(TB) leukemia; 3.38 µM in the test with SNB-19 CNS; 2.33 µM with SK-MEL-5 melanoma. The TGI with CCRF-CEM leukemia is 10.6 µM; with MOLT-4 leukemia, 9.65 µM; with KM12 colon, 2.09 µM; in the test on ACHN renal, above 100 µM.
Turning to `COc1ccc(N2C(C)=C(C#N)C34C(=O)N(c5ccccc5)C(=O)C3=C(O)C=CC24O)cc1` (centres undefined), the GI50 in the test with MDA-MB-231 breast is 14.5 µM; in the test on BT-549 breast it was 9.75 µM; in the test on M14 melanoma, 13.6 µM; in the test with HL-60(TB) leukemia, 15.5 µM; in the test with SNB-19 CNS it was 18.4 µM; in the test on SK-MEL-5 melanoma, 11.4 µM. In addition, the GI50 in the test with CCRF-CEM leukemia was 3.09 µM; in the test with MOLT-4 leukemia, 21.2 µM; with KM12 colon, 10 µM; with ACHN renal it was 18.2 µM. For the same compound, the TGI with MDA-MB-231 breast turned out to be 29.8 µM; with BT-549 breast, 22.4 µM; with M14 melanoma, 38.6 µM; in the test with HL-60(TB) leukemia, 65.9 µM; with SNB-19 CNS, 50.2 µM; in the test with SK-MEL-5 melanoma, 28.2 µM. The TGI in the test with CCRF-CEM leukemia turned out to be 15.6 µM; with MOLT-4 leukemia, 71.7 µM; with KM12 colon it was 26.6 µM; in the test on ACHN renal, 45.6 µM.
